Assay results taken from patent US5405864A, “Chemotherapeutic maleimides” (Syntex (U.S.A.) Inc., priority 1993, dated 1995).

Columns and labels:
[1] = tested on: H82 small cell lung carcinoma (SCLC) cells; experiment: Small Cell Lung Carcinoma Xenograft Assay; format: in vivo, Female athymic nude mice
Experimental: (§1) In vivo activity for chemotherapeutic agents, particularly for treating malignant diseases, is determined by tumor inhibition assays, for example as described by Maneckjee, et al., in Proc. Natl. Acad. Sci. USA, Vol 89, 1169-1173 (February 1992). Variations of the assay can be performed, e.g., using HT-29 colon carcinoma cells, SCLC H82 cells, CHO/PKC-β and CHO/PKC-ε cells.
This procedure is a modification of a procedure described by Maneckjee, et al., in Proc. Natl. Acad. Sci. USA, Vol 89, 1169-1173 (February 1992).
(§2) H82 small cell lung carcinoma (SCLC) cells are thawed from frozen stock and grown in RPMI. Prior to injection, the cells are trypsinized, counted, and resuspended in PBS:solubilized basement membrane preparation (Matrigel®) (1:2) to concentrations of 5×10^5 or 1.5×10^6 […]. Female athymic nude mice, 4-5 weeks old (Harlan Sprague Dawley) receive 200R/mouse irradiation one day prior to challenge, and are given 0.2 ml SCLC/mouse by subcutaneous injection in the flank (concentrations of 1×10^5 or 3×10^5 SCLC cells/mouse). Groups of 30 mice are treated intraperitoneally, once a day, with test compound at 10 mg/kg (solubilized in DMSO and diluted to final vehicle concentration of 20% DMSO in PBS). Treatments are started 2 hours post-challenge and continue for 45 days. Vehicle treated and untreated mice are used as controls.
(§3) Statistical Analysis: A Fisher Exact test [Kendall M., Stuart A., The Advanced Theory of Statistics, Vol., 2 (MacMillan Pub. Co. N.Y., 1979)] is used to compare tumor occurrence rates between groups. The Mann Whitney U test [Hollander N., Wolfe D. A., Non-parametric Statistical Methods (John Wiley and Sons, Inc., N.Y., 1973)] is used to compare differences in survival time and a log rank test (Kalbfleisch J. D., Prentice R. L., The Statistical Analysis of Failure Time Data (John Wiley and Sons, Inc., N.Y. 1980)] is used to compare the time for each tumor to reach 2000 mm^3.

HT-29 colon cancer cells = experiment: Colon Carcinoma Xenograft Assay; format: in vivo, Female athymic nude mice
Experimental: as §1, §2, §3
By following the procedure of Example 18 and substituting H82 small cell lung carcinoma cells with HT-29 colon cancer cells, grown to a concentration of 5×10^6 cells/ml and administered at a concentration of 1×10^6 cells/mouse, activity against colon carcinoma is determined.

[2] = tested on: colon carcinoma cell line HT-29; experiment: tumor cell growth inhibition in culture, colon carcinoma cell line HT-29; format: cell-based; conditions: Homo sapiens, read-out: GI50 (concentration to inhibit tumor cell growth in culture by 50%)
Source text: (§4) The compounds of the present invention are protein kinase C inhibitors useful as chemotherapeutic agents for treating mammals, particularly humans, having a variety of malignant disease states including: small cell lung carcinoma, colon carcinoma, breast tumors corresonding to MCF7, MDA-MB-435 and MDA-N cell lines, and PKC overexpressing tumors, such as those corresponding to CHO/PKC-ε. […] For example, 3-[1-(3-isothioureidopropyl)-2-(thianaphthen-2-yl)indol-3-yl]-1H-pyrrole-2,5-dione has a GI50 (concentration to inhibit tumor cell growth in culture by 50%) of […] against breast cell line MDA-N versus 1 μM against colon carcinoma cell line HT-29.

breast cell line MDA-N = experiment: tumor cell growth inhibition in culture, breast cell line MDA-N; format: cell-based; conditions: Homo sapiens, read-out: GI50 (concentration to inhibit tumor cell growth in culture by 50%)
Source text: as §4

β1 isozyme of PKC = biological target: T1, β1 isozyme of PKC (Rattus norvegicus, UniProt P68403); experiment: Protein kinase C inhibition assay (32P incorporation from γ-32P ATP into synthetic peptide substrate); format: biochemical; conditions: β1 isozyme of PKC from rat brain; 50 μM ATP; five minutes at room temperature
T1 construct: β1 isozyme of PKC from rat brain; from tissue; host or cells: rat brain
Experimental: In vitro activity for protein kinase C inhibition, is quantitated by measuring incorporation of ^32 P from γ-^32 P ATP into synthetic peptide substrates.
Protein Kinase C (PKC) inhibitory activity is quantitated by measuring incorporation of ^32 P from γ-^32 P ATP into synthetic peptide substrates. The inhibitory potential is measured using the β1 isozyme of PKC from rat brain and the synthetic peptide substrate ala-lys-arg-arg-arg-leu-ser-ser-leu-arg-ala.
A reaction mixture containing 25 mM Tris-HCl, pH 7.5, 2.5 mM Mg(NO3), 1.0 mM EGTA, 20 μM substrate, 1 μg/mL phosphatidylserine (PS), 5×10^-6 M diacylglycerol(di-C8), and 50 μM ATP is spiked with γ-^32 P ATP (>5,000 Ci/mmol) to provide approximately 10^6 CPM per reaction and 0.08 μg/mL PKC in a 50 μl volume per well. The assay is run with or without test compound, added at various concentrations. After five minutes incubation at room temperature, the reaction is stopped by the addition of 0.2V of a 50% TCA solution. A 30 μl sample from each well (control and test compound) is then spotted onto Whatman P-81 ion exchange chromatography paper, and 32-P incorporation is then counted on a Beckman LS 5000 TA liquid scintillation counter. The percent inhibition of PKC activated by […] diC8 and 1 μg/mL phosphatydil serine is determined according to the formula: […]
and the concentration necessary to achieve 50% Inhibition is determined.

[3] = toxicity in mice of the Small Cell Lung Carcinoma Xenograft Assay; format: in vivo, Female athymic nude mice
Experimental: as §2

T1 sequence (P68403 whole entry): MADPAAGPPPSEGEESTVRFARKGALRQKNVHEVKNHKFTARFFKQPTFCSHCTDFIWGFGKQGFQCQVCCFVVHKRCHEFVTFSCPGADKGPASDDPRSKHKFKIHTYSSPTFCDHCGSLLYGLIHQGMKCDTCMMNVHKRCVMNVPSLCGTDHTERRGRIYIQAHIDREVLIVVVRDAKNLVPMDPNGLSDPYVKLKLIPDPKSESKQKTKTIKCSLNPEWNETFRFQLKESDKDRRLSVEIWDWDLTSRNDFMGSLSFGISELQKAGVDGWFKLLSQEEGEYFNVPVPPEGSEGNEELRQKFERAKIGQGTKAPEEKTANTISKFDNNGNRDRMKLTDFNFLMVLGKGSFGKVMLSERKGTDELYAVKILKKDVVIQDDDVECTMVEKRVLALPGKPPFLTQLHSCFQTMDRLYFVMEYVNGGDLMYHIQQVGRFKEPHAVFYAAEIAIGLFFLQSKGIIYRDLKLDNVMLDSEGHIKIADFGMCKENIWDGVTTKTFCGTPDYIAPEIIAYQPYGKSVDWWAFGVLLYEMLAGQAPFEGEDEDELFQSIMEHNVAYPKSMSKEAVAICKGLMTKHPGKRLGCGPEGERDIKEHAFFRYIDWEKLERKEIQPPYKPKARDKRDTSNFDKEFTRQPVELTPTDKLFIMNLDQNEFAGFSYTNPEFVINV

Row | SMILES | prevention of SCLC tumor formation (in words) ([1]; 10 mg/kg intraperitoneally once a day, 45 days) | inhibition of tumor growth (in words) ([1]; SCLC H82 xenograft, 10 mg/kg intraperitoneally once a day, 45 days) | tumor size, fold smaller than vehicle-treated or untreated control groups ([1]; challenge of 1×10^5 SCLC cells/mouse, 10 mg/kg i.p. once a day) [fold] | median time for the tumor volume to reach 2000 mm^3 ([1]; challenge of 1×10^5 SCLC cells/mouse, 10 mg/kg i.p. once a day, vehicle-treated control Day 35 (p<0.001)) [days] | extension of median time for the tumor volume to reach 2000 mm^3 ([1]; challenge of 1×10^5 SCLC cells/mouse, 10 mg/kg i.p. once a day, vs vehicle-treated control Day 35 (p<0.001)) [days] | tumor size, fold smaller than vehicle-treated or untreated control groups ([1]; challenge of 3×10^5 SCLC cells/mouse, 10 mg/kg i.p. once a day) | median time for the tumor volume to reach 2000 mm^3 ([1]; challenge of 3×10^5 SCLC cells/mouse, 10 mg/kg i.p. once a day, vehicle-treated control Day 31 (p<0.001)) [days] | extension of median time for the tumor volume to reach 2000 mm^3 ([1]; challenge of 3×10^5 SCLC cells/mouse, 10 mg/kg i.p. once a day, vs vehicle-treated control Day 31 (p<0.001)) [days] | number of mice having tumors ≥2000 mm^3 at Day 42 of treatment (in words) ([1]; either challenge level (3×10^5 or 1×10^5 SCLC cells/mouse), 10 mg/kg i.p. once a day, p<0.05) | prevention of HT-29 tumor formation (in words) (HT-29 colon cancer cells; 1×10^6 cells/mouse, procedure of Example 18) | number of mice having tumors ≥2000 mm^3 at Day 42 of treatment (in words) (HT-29 colon cancer cells; HT-29, 1×10^6 cells/mouse, p<0.05) | tumor size, fold smaller than vehicle-treated or untreated control groups (HT-29 colon cancer cells; HT-29, 1×10^6 cells/mouse, procedure of Example 18) | median time for the tumor volume to reach 2000 mm^3 (HT-29 colon cancer cells; HT-29, 1×10^6 cells/mouse, vehicle-treated control Day 33 (p<0.01)) [days] | extension of median time for the tumor volume to reach 2000 mm^3 (HT-29 colon cancer cells; HT-29, 1×10^6 cells/mouse, vs vehicle-treated control Day 33 (p<0.01)) [days] | inhibition of tumor growth (in words) (HT-29 colon cancer cells; HT-29 xenograft, 1×10^6 cells/mouse, 10 mg/kg i.p. once a day (procedure of Example 18)) | GI50 [2] [nM] | GI50 (breast cell line MDA-N) [nM] | IC50 (β1 isozyme of PKC) [nM] | toxicity (in words) ([3]; 10 mg/kg intraperitoneally once a day) | LD50 at 144 h ([3]; mouse, in vivo, ip, after 6 days, read-out: chronic LD50) [mg/kg]
1 | N=C(N)SCCCn1c(-c2cc3ccccc3s2)c(C2=CC(=O)NC2=O)c2ccccc21 [3-[1-(3-isothioureidopropyl)-2-(thianaphthen-2-yl)indol-3-yl]-1H-pyrrole-2,5-dione] | not preventing SCLC tumor formation entirely | did significantly slow tumor growth | ~3 | > 42 | > 7 | approximately 2 fold | 39 | 8 | reduced with either challenge level | not preventing HT-29 tumor formation entirely | reduced | approximately 1.5 fold | 37 | 4 | did significantly slow tumor growth | 1000 | 10 | 3 | exhibitied toxicity at 10 mg/kg | ~20
2 | NCCCn1c(-c2cc3ccccc3s2)c(C2=CC(=O)NC2=O)c2ccccc21 [3-[1-(3-aminopropyl)-2-(thianaphthen-2-yl)indol-3-yl]-1H-pyrrole-2,5-dione] | – | – | – | – | – | – | – | – | – | – | – | – | – | – | – | – | – | 40 | – | –
